Test results reported in ChEMBL document CHEMBL1201862, “PubChem BioAssay data set” (2004).
The source made the active and inactive calls.

Tests used:
[1] = target: T1, Kappa-type opioid receptor (Homo sapiens, UniProt P41145); format: functional
Beta-galactosidase [2] = target: T2, Beta-galactosidase (Escherichia coli, UniProt Q8VNN2); format: functional
[3] = target: T1, Kappa-type opioid receptor; format: functional; remark: listed apart in the source
[4] = target: Peroxisome proliferator-activated receptor gamma/Nuclear receptor coactivator 2 (Homo sapiens, UniProt P37231); format: functional;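 also: agonist potency for raising coactivator recruitment to the receptor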
[5] = target: Peroxisome proliferator-activated receptor gamma/Nuclear receptor coactivator 1 (Homo sapiens, UniProt P37231); format: functional;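 also: agonist potency as compounds enhance coactivator SRC-1 recruitment to PPARgamma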
Chain of Peroxisome proliferator-activated receptor gamma/Nuclear receptor coactivator 1 (P37231 whole entry): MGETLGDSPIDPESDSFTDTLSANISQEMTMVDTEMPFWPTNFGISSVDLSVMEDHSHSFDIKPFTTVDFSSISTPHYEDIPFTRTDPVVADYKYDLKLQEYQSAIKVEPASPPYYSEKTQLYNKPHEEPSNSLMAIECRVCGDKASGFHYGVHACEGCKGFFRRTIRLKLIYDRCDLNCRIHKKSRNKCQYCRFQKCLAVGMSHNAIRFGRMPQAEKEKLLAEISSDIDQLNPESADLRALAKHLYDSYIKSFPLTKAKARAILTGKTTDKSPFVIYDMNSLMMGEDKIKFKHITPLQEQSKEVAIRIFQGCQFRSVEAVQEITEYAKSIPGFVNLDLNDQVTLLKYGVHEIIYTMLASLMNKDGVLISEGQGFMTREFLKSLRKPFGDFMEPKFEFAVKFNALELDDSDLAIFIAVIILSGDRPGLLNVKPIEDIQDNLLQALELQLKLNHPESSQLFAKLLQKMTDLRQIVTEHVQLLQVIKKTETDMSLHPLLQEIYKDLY
Chain of Peroxisome proliferator-activated receptor gamma/Nuclear receptor coactivator 1 (Q15788 whole entry, further chain): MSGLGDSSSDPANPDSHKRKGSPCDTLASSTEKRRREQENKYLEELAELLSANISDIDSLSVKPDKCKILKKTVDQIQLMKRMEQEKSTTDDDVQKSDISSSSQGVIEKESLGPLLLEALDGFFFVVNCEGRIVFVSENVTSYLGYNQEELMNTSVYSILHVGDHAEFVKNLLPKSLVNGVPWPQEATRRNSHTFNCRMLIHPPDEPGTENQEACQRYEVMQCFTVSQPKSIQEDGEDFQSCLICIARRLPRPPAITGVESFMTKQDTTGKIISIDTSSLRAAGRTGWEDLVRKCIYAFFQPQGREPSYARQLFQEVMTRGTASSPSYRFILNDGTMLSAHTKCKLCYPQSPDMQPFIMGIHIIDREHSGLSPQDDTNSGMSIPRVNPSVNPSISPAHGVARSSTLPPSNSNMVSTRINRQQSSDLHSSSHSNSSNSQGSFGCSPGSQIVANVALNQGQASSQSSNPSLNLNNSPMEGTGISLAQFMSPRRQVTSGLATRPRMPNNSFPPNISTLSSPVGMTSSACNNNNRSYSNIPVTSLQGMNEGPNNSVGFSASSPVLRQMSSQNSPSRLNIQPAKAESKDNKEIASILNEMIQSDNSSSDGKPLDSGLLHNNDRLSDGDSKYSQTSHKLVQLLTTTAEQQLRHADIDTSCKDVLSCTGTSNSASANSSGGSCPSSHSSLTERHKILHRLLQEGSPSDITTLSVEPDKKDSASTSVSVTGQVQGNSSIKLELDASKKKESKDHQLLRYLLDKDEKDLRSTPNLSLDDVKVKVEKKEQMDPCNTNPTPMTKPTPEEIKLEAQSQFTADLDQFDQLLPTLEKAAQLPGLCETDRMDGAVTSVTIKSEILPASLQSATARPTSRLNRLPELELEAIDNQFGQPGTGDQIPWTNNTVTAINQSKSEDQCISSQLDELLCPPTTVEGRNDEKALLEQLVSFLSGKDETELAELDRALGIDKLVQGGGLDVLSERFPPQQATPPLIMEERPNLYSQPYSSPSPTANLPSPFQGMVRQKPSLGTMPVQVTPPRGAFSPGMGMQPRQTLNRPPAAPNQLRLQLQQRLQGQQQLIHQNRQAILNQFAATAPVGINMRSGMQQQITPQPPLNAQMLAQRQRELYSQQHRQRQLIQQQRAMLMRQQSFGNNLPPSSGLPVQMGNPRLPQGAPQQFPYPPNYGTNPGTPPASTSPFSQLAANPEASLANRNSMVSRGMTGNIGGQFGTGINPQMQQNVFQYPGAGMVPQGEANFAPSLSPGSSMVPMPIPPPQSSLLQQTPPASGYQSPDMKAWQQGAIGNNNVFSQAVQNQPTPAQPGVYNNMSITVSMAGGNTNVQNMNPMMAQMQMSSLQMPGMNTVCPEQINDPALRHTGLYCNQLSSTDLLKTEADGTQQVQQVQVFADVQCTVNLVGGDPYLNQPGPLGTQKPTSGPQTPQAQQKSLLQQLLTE

Aminopeptidase N = target: T3, Aminopeptidase N (Plasmodium falciparum FcB1/Columbia, UniProt O96935); test: malaria alanyl aminopeptidase activity blockers – biochemical, fluorogenic H-Leu-NHMec substrate, 1536-well (AID 1445); set-up: species or system Plasmodium falciparum 3D7, 3D7
T3 sequence (O96935 whole entry): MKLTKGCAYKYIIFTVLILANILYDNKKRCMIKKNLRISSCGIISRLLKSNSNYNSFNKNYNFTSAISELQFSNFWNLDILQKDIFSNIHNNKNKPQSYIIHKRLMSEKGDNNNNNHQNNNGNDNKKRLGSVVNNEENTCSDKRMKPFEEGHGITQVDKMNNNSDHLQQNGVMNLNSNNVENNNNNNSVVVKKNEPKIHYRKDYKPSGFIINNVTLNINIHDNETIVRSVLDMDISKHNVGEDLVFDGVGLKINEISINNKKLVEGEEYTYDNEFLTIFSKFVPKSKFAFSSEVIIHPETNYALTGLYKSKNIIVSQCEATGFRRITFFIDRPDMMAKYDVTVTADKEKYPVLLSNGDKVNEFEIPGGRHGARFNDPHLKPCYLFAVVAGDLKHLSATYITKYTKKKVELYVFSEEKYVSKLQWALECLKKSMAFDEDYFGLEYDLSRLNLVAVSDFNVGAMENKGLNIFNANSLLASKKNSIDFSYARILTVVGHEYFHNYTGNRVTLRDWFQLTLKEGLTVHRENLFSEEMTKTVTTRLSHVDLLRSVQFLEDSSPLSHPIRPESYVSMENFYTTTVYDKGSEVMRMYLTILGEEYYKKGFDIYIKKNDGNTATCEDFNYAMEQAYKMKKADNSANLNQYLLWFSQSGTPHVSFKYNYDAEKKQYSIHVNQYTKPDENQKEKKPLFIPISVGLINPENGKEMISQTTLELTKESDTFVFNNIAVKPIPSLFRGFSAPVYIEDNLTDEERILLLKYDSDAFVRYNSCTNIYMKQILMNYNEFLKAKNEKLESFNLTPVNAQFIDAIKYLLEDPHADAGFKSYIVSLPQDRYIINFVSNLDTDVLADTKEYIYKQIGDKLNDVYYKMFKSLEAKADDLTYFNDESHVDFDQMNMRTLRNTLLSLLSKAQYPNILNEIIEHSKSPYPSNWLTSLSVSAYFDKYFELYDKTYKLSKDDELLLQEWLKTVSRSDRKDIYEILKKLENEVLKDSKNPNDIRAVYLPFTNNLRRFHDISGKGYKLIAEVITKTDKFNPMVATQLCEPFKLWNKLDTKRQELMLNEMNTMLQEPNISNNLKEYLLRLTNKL

[6] = target: Peroxisome proliferator-activated receptor gamma/Nuclear receptor coactivator 3 (Homo sapiens, UniProt P37231); format: functional;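 also: agonist potency for raising coactivator recruitment to the receptor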
Chain of Peroxisome proliferator-activated receptor gamma/Nuclear receptor coactivator 3 (P37231 whole entry): as the sequence (P37231 whole entry) above
Chain of Peroxisome proliferator-activated receptor gamma/Nuclear receptor coactivator 3 (Q9Y6Q9 whole entry, further chain): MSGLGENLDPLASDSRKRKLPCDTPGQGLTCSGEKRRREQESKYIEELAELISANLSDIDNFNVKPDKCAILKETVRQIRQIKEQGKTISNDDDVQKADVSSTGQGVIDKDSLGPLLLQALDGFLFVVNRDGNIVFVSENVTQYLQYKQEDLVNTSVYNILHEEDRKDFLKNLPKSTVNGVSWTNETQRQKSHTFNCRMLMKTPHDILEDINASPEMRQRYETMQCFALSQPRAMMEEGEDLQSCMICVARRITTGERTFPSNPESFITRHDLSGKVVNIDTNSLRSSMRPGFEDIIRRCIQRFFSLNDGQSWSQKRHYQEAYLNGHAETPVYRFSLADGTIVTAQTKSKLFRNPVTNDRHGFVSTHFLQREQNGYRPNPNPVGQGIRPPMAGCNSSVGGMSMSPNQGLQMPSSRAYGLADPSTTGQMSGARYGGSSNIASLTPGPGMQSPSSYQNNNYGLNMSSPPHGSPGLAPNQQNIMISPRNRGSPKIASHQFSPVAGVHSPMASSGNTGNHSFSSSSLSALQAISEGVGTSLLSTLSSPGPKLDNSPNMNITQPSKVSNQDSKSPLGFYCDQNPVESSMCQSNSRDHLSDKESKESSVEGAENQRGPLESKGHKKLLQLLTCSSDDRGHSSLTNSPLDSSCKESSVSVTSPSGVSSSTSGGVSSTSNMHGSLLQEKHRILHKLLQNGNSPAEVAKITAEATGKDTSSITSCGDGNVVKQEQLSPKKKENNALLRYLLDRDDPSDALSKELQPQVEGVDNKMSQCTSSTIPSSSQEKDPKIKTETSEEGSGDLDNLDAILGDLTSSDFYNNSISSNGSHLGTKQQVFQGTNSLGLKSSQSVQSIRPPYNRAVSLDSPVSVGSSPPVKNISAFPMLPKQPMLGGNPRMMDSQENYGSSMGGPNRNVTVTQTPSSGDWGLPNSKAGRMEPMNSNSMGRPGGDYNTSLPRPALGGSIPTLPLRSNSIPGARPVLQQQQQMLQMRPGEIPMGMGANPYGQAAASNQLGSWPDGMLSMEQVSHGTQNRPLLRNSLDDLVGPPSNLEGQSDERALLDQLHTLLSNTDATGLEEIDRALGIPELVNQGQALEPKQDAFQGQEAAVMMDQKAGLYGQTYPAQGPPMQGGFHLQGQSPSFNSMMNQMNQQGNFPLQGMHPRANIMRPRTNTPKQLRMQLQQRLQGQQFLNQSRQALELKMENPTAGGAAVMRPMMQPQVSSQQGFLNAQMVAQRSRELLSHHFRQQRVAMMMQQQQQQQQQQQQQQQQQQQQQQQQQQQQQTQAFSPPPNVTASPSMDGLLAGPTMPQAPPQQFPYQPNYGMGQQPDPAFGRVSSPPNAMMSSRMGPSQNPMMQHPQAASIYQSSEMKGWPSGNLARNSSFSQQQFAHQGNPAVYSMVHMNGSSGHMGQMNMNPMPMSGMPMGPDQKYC

[7] = target: DNA dC->dU-editing enzyme APOBEC-3A (Homo sapiens, UniProt P31941); test: Dose Response confirmation of small molecule APOBEC3A DNA Deaminase Inhibitors via a fluorescence-based single-stranded DNA deaminase assay. [Related pubchem assays (depositor defined):AID493011, AID493024]; format: functional
[8] = target: DNA dC->dU-editing enzyme APOBEC-3G (Homo sapiens, UniProt Q9HC16); format: functional;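 also: Dose-response counterscreen measuring inhibition of APOBEC3G DNA deaminase activity, run while confirming APOBEC3A inhibitors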
Chain of DNA dC->dU-editing enzyme APOBEC-3G (Q9HC16 whole entry): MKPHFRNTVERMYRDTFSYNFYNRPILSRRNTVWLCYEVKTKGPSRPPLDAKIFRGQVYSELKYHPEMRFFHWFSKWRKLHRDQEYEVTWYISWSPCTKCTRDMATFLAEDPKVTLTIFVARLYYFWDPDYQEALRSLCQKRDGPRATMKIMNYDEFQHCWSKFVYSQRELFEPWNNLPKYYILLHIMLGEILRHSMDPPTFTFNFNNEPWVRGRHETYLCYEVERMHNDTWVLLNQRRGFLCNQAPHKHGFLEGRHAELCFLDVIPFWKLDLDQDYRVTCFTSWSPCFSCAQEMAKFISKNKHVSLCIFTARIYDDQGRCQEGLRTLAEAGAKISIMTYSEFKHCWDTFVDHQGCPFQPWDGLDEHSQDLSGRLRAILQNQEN

[9] = test system: Streptococcus sp. 'group A'; test: Streptococcus pyogenes SK(-)GAS viability under kanamycin – luminescence, BacTiterGlo, confirmation, counter-screen for streptokinase expression inhibitor project, dose response (AID 1900); format: functional, organism-based
Beta-galactosidase [10] = target: T2, Beta-galactosidase; test: PubChem AID 485352; format: functional
[11] = target: T4, Type-1 angiotensin II receptor (Homo sapiens, UniProt P30556); test: antagonism of angiotensin II type 1 receptor – cell-based, uHTS hits, selectivity assay for APJ receptor antagonist project, dose response (AID 463214); format: functional;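 also: antagonist potency against angiotensin II stimulated AT1 response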
T4 sequence (P30556 whole entry): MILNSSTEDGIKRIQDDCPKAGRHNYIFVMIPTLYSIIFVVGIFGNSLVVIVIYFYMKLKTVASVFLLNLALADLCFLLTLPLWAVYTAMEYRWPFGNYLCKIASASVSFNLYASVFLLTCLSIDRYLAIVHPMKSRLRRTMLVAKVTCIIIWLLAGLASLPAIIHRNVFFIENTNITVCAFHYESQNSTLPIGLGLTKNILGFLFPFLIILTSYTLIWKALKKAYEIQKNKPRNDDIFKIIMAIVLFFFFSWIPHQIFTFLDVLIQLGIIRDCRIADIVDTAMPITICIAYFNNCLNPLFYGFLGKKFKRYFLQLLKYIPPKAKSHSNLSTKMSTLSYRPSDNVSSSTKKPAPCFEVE

Streptococcus = test: GAS UMAA2166 growth inhibition – luminescence, BacTiterGlo, counter-screen for streptokinase expression inhibitor project, dose response (AID 1915); format: functional, organism-based;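 also: potency for reduction of bacterial viability or growth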
[12] = A cytotoxicity screen of small molecule inhibitors of the PhoP region in Salmonella typhi identified in the primary screen. [Related pubchem assays: 1850, 1864, 1985 ]; format: functional
[13] = target: T5, Polyadenylate-binding protein 1 (Homo sapiens, UniProt P11940); test: MLLE binding blockers, Cy5 peptide tracer – biochemical, fluorescence polarization, Cy5-PAM2 peptide, secondary, miRNA deadenylation inhibitor project, dose response (AID 602260); format: functional; settings: read-out: IC50_Mean
T5 sequence (P11940 whole entry, the tested form may be a part): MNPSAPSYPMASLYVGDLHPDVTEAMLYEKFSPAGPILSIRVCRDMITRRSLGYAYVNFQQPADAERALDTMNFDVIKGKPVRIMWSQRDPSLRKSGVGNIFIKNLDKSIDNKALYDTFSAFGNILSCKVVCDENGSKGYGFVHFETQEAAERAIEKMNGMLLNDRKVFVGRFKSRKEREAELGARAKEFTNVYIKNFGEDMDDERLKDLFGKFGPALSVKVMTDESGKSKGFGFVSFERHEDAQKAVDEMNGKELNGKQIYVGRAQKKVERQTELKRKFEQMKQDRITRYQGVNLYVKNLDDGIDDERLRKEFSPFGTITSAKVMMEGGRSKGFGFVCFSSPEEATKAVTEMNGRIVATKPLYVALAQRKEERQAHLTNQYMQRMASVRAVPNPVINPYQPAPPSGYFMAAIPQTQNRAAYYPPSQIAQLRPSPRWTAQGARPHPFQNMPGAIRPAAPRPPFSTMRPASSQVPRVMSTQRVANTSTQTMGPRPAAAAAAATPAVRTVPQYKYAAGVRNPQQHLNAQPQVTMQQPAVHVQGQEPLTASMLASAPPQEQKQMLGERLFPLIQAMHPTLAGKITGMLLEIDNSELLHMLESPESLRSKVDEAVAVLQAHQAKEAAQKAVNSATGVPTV

[14] = target: T5, Polyadenylate-binding protein 1; test: MLLE domain peptide-binding blockers, IC50 – biochemical, fluorescence polarization, FITC-PAM2 peptide, dose response (AID 602259); format: functional; settings: read-out: IC50_Mean
Estrogen receptor beta = Estrogen receptor beta (Homo sapiens, UniProt Q92731);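 also: recombinant ER-beta bound to coactivator SRC1 peptide in presence of estradiol agonist; inhibitors block coactivator peptide binding and lower the FRET signal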
cells = format: functional
[15] = target: Glyceraldehyde-3-phosphate dehydrogenase (Homo sapiens, UniProt P04406)
[16] = target: E3 ubiquitin-protein ligase Mdm2 (Homo sapiens, UniProt Q00987); test: MDM2-luc reporter signal enhancers, multi-concentration potency testing, MDM2 ubiquitin-protein ligase inhibitor program, whole-cell format, luminescence detection, 384-well microplate (AID 1394); format: functional;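 also: MDM2 E3 inhibitors raise luminescence so EC50 is for signal enhancement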
[17] = target: Induced myeloid leukemia cell differentiation protein Mcl-1 (Homo sapiens, UniProt Q07820); format: functional
Vero = test: viability of Vero cells under compound – cytotoxicity control for flavivirus capping enzyme inhibitors (AID 588742); format: functional; settings: Chlorocebus sabaeus
[18] = target: T6, Apoptotic protease-activating factor 1 (Homo sapiens, UniProt O14727); format: functional
T6 sequence (O14727 whole entry): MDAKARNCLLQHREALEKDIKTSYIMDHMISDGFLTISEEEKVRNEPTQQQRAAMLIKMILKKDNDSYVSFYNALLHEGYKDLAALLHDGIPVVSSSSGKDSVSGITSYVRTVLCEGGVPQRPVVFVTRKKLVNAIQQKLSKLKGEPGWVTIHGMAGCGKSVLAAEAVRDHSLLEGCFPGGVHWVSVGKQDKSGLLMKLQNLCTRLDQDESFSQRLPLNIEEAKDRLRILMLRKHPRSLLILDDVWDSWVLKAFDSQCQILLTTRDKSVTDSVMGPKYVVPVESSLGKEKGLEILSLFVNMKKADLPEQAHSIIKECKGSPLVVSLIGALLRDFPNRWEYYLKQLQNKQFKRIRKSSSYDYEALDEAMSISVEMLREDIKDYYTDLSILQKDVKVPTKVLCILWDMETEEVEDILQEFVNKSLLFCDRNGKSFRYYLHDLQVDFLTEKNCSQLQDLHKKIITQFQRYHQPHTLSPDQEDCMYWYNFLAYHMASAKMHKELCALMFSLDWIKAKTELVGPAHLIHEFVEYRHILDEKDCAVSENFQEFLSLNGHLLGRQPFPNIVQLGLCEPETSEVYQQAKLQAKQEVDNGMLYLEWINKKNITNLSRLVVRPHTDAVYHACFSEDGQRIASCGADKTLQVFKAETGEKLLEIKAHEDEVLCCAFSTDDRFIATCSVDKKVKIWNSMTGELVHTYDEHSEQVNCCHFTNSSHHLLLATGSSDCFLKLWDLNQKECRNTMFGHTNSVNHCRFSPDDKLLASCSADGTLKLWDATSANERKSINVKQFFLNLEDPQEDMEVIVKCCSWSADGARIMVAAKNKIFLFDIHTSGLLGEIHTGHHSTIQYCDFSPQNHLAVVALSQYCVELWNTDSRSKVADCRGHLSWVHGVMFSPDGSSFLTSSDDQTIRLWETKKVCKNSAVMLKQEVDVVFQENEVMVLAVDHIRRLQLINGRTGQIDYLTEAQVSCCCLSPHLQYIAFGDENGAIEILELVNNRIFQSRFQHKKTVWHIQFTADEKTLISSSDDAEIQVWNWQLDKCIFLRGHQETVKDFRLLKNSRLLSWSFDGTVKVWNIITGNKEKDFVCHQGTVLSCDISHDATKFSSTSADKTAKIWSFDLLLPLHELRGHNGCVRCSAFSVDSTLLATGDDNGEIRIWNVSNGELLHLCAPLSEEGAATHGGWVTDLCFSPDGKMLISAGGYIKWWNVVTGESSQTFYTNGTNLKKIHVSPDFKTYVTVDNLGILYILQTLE

[19] = viability loss in THP-1 monocytes – THP-1 cells, cytotoxicity control for Vif-APOBEC3G degradation inhibitor project, dose response (AID 1117359); format: functional; settings: THP-1

Compound: CSC(=S)N/N=C(\C)c1ccccc1
- IC50 [1]: 8.37 µM (active)
- EC50 (Beta-galactosidase [2]): > 31.5 µM (inactive)
- IC50 [3]: > 32 µM

Compound: Cc1nnc(O)nc1N/N=C/c1cccs1
- EC50 [4]: > 79.4 µM (not active)
- EC50 [5]: > 79.4 µM (not active)
- IC50 (Aminopeptidase N): 25.8 µM (active)
- EC50 [6]: > 79.4 µM (not active)

Compound: O=C(CSc1ncnc2nc[nH]c12)Nc1ccccc1C(F)(F)F
- IC50 [7]: 50.8 µM (active)
- IC50 [8]: 93.7 µM (active)

Compound: CCOC(=O)c1nn(-c2ccc(Cl)cc2)c2nc(-c3ccc(C)cc3)c(C#N)c(=O)n12
- EC50 [4]: > 79.4 µM (not active)
- EC50 [5]: > 79.4 µM (not active)
- EC50 [6]: > 79.4 µM (not active)

Compound: CCCOc1cccc(-c2cc(C(=O)N/N=C/c3ccccn3)c3ccccc3n2)c1
- EC50 [9]: 1.95 µM (active)
- EC50 (Beta-galactosidase [10]): > 40 µM (inactive)
- IC50 [11]: 5.9 µM (active)
- IC50 [1]: 8.44 µM (active)
- EC50 (Beta-galactosidase [2]): > 31.5 µM (inactive)
- IC50 [3]: > 32 µM
- EC50 (Streptococcus): 2.21 µM (active)

Compound: c1ccc(CSc2ccc(-c3cccs3)nn2)nc1
- EC50 [12]: > 50 µM (active)

Compound: CCOc1ccc(-c2csc(NNC3=NCCCCC3)n2)cc1
- EC50 [4]: > 79.4 µM (not active)
- EC50 [5]: > 79.4 µM (not active)
- EC50 [6]: > 79.4 µM (not active)
- IC50 [13]: > 66 µM (inactive)
- IC50 [14]: > 66 µM (inactive)

Compound: CSCCC(NC(=O)c1ccco1)C(=O)OCC(=O)Nc1sccc1C#N (stereo not drawn)
- IC50 (Estrogen receptor beta): 16.5 µM (active)

Compound: CCOC(=O)c1ccc(COC(=O)c2cc3ccccc3oc2=O)o1
- IC50 (cells): > 50 µM (active)

Compound: CCOc1nc(-c2ccccc2)ccc1-c1noc(-c2cccs2)n1
- EC50 [4]: 21.2 µM (not active)
- EC50 [5]: 25.8 µM (not active)
- EC50 [6]: 29.6 µM (not active)

Compound: CC(C)=CCN1CCN(Cc2nc(-c3ccccc3)cs2)CC1CCO (stereo not drawn)
- EC50 [12]: > 50 µM (active)

Compound: Cc1oc(C(=O)O)cc1COc1ccc2c(oc(=O)c3ccccc32)c1C
- IC50 [15]: > 100 µM (not active)

Compound: COCCN(CC(=O)Nc1cccc(C)c1C)C(=O)CN1C(=O)NC2(CCCCC2)C1=O
- IC50 [7]: 11.1 µM (active)
- IC50 [8]: 12.2 µM (active)

Compound: N=C(NOS(=O)(=O)c1ccc(Cl)cc1)c1cccnc1
- EC50 [12]: > 50 µM (active)

Compound: Cc1ccc2c(c1)c1ccc3c(c1n2C)C(=O)C=CC3=O
- EC50 [16]: 958 µM (active)
- IC50 [17]: 1.51 µM (active)
- CC50 (Vero): 27.3 µM (active)
- IC50 [18]: 51.8 µM (active)
- IC50 [13]: > 66 µM (inactive)
- IC50 [14]: > 66 µM (inactive)
- CC50 [19]: 12.5 µM (active)

Compound: CS(=O)(=O)N(CCc1ccccc1)CC(=O)Nc1ccc2c(c1)OCO2
- EC50 [12]: > 50 µM (active)

Compound: O=C1NN(c2cccc(Cl)c2)C(=O)/C1=C\c1ccc(-c2cccc(C(=O)O)c2)o1
- IC50 [15]: > 100 µM (not active)

Compound: COc1ccc(CCNC(=O)CN(C2CCCCC2)S(C)(=O)=O)cc1OC
- IC50 [7]: 4.1 µM (active)
- IC50 [8]: 5.58 µM (active)

Compound: CCC(=O)Nc1cc(C(=O)O)ccc1S(=O)(=O)c1ccc(C)cc1
- IC50 [7]: 16.4 µM (active)
- IC50 [8]: 42.2 µM (active)
